Source: publication PMC6550521, “Stress-Induced Changes in the Lipid Microenvironment of β-(1,3)-D-Glucan Synthase Cause Clinically Important Echinocandin Resistance in Aspergillus fumigatus” (mBio, 2019)
pIC50: −log10 of the molar value. Several values for one entry are separate records, joined by “and”; a condition that tells them apart may be missing. Equal entries are not always repeated.

Tests used:
A. fumigatus ATCC 13073 [1] = test: Antifungal susceptibility testing (MEC, CLSI M38-A2); type: cell-based, Aspergillus fumigatus
Procedure: (§1) Minimum effective concentrations (MECs) for A. fumigatus strains were determined according to CLSI document M38-A2 ([48]) and defined as the lowest drug concentration that led to the growth of small, rounded, compact hyphal forms compared to the hyphal growth seen in the drug-free growth control wells. The following drugs (supplier) were tested: caspofungin (Merck & Co., Inc.), micafungin (Astellas Pharma US, Inc.), anidulafungin (Pfizer Inc.), itraconazole (Sigma-Aldrich), voriconazole (Pfizer Inc.), and amphotericin B (Sigma-Aldrich). In addition, rezafungin and ibrexafungerp were obtained from Cidara Therapeutics and Scynexis Inc., respectively.

[2] = tested on: A. fumigatus S679P (fks1 Ser-679-Pro mutant); test: as above; type: cell-based, Aspergillus fumigatus; details: S679P, fks1 Ser-679-Pro
Procedure: as §1

[3] = target: β-(1,3)-D-glucan synthase of clinical isolate 2770 (Aspergillus fumigatus, UniProt Q4WLT4); test: Glucan synthase kinetic inhibition assay, enzyme from clinical isolate 2770; type: biochemical; details: enzyme from isolate 2770 grown at 4 μg/ml CAS
[4] = target: β-(1,3)-D-glucan synthase of clinical isolate 32458 (Aspergillus fumigatus, UniProt Q4WLT4); test: Glucan synthase kinetic inhibition assay, enzyme from clinical isolate 32458; type: biochemical; details: enzyme from isolate 32458 grown at 4 μg/ml CAS
[5] = tested on: lipid microenvironment of glucan synthase of RG101; test: Lipid analysis (LC-MS/MS) of partially purified glucan synthase; type: cell-based, Aspergillus fumigatus; details: RG101 grown with CAS 1 μg/ml
Procedure: (§2) Approximately 10 μg/ml of partially purified glucan synthase of RG101 and clinical isolates was analyzed for lipid content by LC-MS/MS ([50]) at the Lipidomics Shared Resource of the Medical University of South Carolina (http://www.hollingscancercenter.org/research/shared-resources/lipidomics/index.html).

[6] = tested on: lipid microenvironment of glucan synthase of clinical isolates 117, 2770 and 32458; test: as above; type: cell-based, Aspergillus fumigatus; details: isolates 117, 2770, 32458 treated with CAS
Procedure: as §2

fks1 expression in RG101 = test: fks1 expression by RT-PCR; type: cell-based, Aspergillus fumigatus; details: RG101, 16 h in YPD, CAS 1 and 4 μg/ml
Procedure: Supplementary file : FIG S1 fks1 expression levels in RG101 under uninduced and CAS-induced conditions. RG101 conidia were grown for 16 h in YPD in the absence and presence of CAS (1 and 4 μg/ml), and expression levels of fks1 were compared using reverse transcription-PCR (RT-PCR). […] Download FIG S1, DOCX file, 0.02 MB.

A. fumigatus ATCC 13073 [7] = test: Electron microscopy (SEM, TEM) of cell wall ultrastructure; type: cell-based, Aspergillus fumigatus; details: CAS 4 μg/ml, 16 h, SEM and TEM
Procedure: (§3) Scanning electron microscopy (SEM) and transmission electron microscopy (TEM) methods were followed as described previously ([49]) and in Text S1.
(§4) For SEM, mycelia of ATCC 13073 and RG101 were grown in the absence and presence of CAS (4 µg/mL) and were fixed with 2.5% (v/v) glutaraldehyde in 0.1 M cacodylate buffer (pH 7.4) at room temperature for 3 h. After being washed with 0.1 M cacodylate buffer, specimens were post-fixed for 1 h with 1% osmium tetroxide in 0.1 M cacodylate buffer (pH 7.4) at 4 °C. Samples were dehydrated in graded ethanol, and then critical point dried in liquid carbon dioxide and sputter-coated with a thin layer of palladium–gold. Observations were carried out using Hitachi S-3400 N scanning electron microscope.
(§5) For TEM, cultures were fixed with 2.5% (v/v) glutaraldehyde solution as described above. They were then post-fixed for 1 h with 1% (w/v) osmium tetroxide in 0.1 M cacodylate buffer (pH 7.4) at 4 °C. After three wash steps in buffer, specimens were dehydrated in a series of graded ethanol and embedded in Embed 812. Thin sections were stained with uranyl acetate followed by lead nitrate and examined in a Hitachi H-7500 electron microscope operated at 100 KV.

A. fumigatus RG101 = test: as above; type: cell-based, Aspergillus fumigatus; details: CAS 4 μg/ml, 16 h, SEM and TEM
Procedure: as §3, §4, §5

[8] = tested on: cell wall glucan and chitin of RG101; test: Cell wall carbohydrate analysis (mass spectrometry, calcofluor white); type: cell-based, Aspergillus fumigatus; details: CAS 4 μg/ml
Procedure: Strains ATCC 13073 and RG101 were grown in the absence and presence of CAS (4 μg/ml) in 6-well microtiter plates containing yeast extract-peptone-dextrose (YPD) broth for 22 h at 37°C. The cells were then lysed using a French press. The broken cell wall sample was processed for chemical analysis using mass spectrometry at the Complex Carbohydrate Research Center (CCRC) at the University of Georgia, Athens, GA.

β-(1,3)-D-glucan synthase of clinical isolate 32458, sequence (Q4WLT4 1-1904): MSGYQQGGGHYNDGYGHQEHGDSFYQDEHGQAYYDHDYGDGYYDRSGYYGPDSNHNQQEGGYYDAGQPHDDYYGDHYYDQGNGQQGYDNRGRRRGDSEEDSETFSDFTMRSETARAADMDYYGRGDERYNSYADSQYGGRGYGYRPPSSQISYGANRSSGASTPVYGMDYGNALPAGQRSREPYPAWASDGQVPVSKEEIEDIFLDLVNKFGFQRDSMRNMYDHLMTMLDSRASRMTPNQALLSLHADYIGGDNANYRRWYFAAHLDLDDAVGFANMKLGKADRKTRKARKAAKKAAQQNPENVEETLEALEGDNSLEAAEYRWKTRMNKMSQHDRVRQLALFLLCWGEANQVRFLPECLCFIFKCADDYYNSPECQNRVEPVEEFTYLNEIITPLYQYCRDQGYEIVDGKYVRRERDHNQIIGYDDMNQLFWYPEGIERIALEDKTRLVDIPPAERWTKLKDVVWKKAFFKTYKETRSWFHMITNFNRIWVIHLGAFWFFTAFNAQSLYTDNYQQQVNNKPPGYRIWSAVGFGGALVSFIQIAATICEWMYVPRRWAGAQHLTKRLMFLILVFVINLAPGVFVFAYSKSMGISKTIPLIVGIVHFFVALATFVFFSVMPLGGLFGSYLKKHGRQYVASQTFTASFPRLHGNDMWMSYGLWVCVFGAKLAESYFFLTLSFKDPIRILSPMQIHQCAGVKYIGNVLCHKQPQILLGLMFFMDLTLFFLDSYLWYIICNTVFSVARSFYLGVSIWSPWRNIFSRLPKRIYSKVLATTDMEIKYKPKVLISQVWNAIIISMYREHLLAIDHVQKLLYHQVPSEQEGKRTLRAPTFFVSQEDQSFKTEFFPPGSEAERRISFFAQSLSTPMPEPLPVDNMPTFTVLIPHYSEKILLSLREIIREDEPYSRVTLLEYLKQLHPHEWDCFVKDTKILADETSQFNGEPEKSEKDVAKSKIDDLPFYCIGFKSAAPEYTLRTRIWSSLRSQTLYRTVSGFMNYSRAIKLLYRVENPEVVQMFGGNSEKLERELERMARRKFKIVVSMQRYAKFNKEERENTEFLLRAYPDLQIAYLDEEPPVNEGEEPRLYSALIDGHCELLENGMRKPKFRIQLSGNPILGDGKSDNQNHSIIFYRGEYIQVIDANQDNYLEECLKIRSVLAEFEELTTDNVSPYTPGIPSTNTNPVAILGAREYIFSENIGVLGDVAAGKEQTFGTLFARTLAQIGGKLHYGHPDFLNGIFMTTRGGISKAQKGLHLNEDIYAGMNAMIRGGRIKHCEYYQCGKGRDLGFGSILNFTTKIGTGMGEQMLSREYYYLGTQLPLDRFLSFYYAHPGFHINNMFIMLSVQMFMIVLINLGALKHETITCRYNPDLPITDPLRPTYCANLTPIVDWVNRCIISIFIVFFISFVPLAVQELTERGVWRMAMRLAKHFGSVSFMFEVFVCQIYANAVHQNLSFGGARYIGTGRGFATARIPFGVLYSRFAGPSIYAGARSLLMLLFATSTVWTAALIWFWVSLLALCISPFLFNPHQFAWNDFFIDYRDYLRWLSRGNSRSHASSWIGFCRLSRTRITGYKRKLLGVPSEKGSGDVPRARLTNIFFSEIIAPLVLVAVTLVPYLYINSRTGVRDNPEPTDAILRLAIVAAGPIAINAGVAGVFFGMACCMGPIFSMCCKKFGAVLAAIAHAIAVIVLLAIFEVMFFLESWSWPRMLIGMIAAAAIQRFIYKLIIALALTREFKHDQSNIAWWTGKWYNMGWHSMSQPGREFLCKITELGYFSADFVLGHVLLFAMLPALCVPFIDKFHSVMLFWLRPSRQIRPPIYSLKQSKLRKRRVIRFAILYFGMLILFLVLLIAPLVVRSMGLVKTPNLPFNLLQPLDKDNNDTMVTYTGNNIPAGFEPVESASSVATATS
β-(1,3)-D-glucan synthase of clinical isolate 2770, sequence (Q4WLT4 1-1904): as above

**Q.** Which “Drug susceptibility testing result, ATCC 13073” value (A. fumigatus ATCC 13073 [1]; 24 h, Fig 1B) does the source give for `CC[C@H](C)C[C@H](C)CCCCCCCCC(=O)N[C@H]1C[C@@H](O)[C@@H](NCCN)NC(=O)[C@@H]2[C@@H](O)CCN2C(=O)[C@H]([C@H](O)CCN)NC(=O)[C@H]([C@H](O)[C@@H](O)c2ccc(O)cc2)NC(=O)[C@@H]2C[C@@H](O)CN2C(=O)[C@H]([C@@H](C)O)NC1=O` [CAS, caspofungin] here?
**A.** 0.12 µg/mL

**Q.** What about the “MEC (minimum effective concentration)” value (A. fumigatus ATCC 13073 [1]; ATCC 13073, fks1 WT) of the same compound?
**A.** 0.12 µg/mL

**Q.** What about the “MEC (minimum effective concentration)” value [2] of the same compound?
**A.** 16 µg/mL

**Q.** And the pIC50 [3]?
**A.** < 5.04

**Q.** And the pIC50 [4]?
**A.** ~5.34

**Q.** And the “Increase in abundance of dihydrosphingosine (DhSph), CAS-treated vs untreated” value [5]?
**A.** 2 fold and 3 fold

**Q.** What about the “Increase in abundance of phytoceramide (C24), CAS-induced vs uninduced” value [5] of the same compound?
**A.** 3 fold

**Q.** And the “Increase in abundance of phytosphingosine (PhSph), CAS-treated vs untreated” value [5]?
**A.** 10 fold

**Q.** And the “Abundance of DhSph and PhSph in enzyme preparations of CAS-treated clinical isolates” value [6]?
**A.** significantly increased abundance

**Q.** What about the “fks1 expression levels, CAS-induced vs uninduced” value (fks1 expression in RG101) of the same compound?
**A.** No significant differences

**Q.** And the “Cell wall ultrastructure of ATCC 13073 grown in the presence of CAS” value (A. fumigatus ATCC 13073 [7])?
**A.** extensive damage

**Q.** And the “Cell wall ultrastructure of RG101 grown in the presence of CAS” value (A. fumigatus RG101)?
**A.** did not show any ultrastructural cell wall damage

**Q.** And the “Chitin levels in RG101 upon CAS exposure” value ([8]; MS and calcofluor white)?
**A.** no significant increase

**Q.** What about the “Cell wall glucan content in RG101 treated with CAS” value ([8]; mass spectroscopy) of the same compound?
**A.** no reduction
